The values below come from patent publication US8318928B2, “Fused imidazole carboxamides as TRPV3 modulators” (Glenmark Pharmaceuticals, S.A., priority 2008, dated 2012).

By inhibition is commonly meant the relative decrease from the control value, in per cent. As a reminder, the IC50 is the concentration that inhibits the measured activity by half.

In the assay the target is T1, Human TRPV3 expressing CHO cells (Homo sapiens, UniProt Q8NET8).
T1 construct: expressed in transfected cells; host or cells: CHO cells, kept under G-418 selection
T1 sequence (Q8NET8 1-790): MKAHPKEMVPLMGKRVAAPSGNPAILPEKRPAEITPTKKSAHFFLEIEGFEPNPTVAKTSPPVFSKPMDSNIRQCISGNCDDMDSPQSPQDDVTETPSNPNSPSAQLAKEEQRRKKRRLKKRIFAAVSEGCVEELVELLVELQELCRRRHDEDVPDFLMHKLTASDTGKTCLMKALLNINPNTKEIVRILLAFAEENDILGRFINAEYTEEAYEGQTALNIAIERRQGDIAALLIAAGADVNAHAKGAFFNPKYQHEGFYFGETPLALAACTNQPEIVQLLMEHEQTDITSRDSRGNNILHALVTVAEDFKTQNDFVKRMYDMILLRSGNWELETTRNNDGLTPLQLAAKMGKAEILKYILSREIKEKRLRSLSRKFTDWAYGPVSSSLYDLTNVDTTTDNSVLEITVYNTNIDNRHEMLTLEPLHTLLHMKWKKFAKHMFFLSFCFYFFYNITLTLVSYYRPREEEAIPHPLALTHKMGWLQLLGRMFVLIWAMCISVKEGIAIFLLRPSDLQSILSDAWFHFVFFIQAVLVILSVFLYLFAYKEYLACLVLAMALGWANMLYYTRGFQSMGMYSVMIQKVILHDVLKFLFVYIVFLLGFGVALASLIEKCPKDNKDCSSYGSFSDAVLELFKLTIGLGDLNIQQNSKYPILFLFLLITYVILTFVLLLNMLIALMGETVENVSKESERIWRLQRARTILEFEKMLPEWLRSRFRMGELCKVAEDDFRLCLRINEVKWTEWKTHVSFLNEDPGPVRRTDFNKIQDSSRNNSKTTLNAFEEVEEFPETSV
Briefly: 45Calcium uptake assay: inhibition of 2-APB induced cellular uptake of radioactive calcium. It is filed as cell-based. Particulars: 2-APB 500 μM; for inhibition at 1 µM: read-out: Percentage inhibition at 1.0 μM; for inhibition at 10 µM: read-out: Percentage inhibition at 10.0 μM; for IC50: class symbols. The source says:
Certain illustrative compounds within the scope of the present invention are screened for TRPV3 activity according to a modified procedure described in (a) Tóth, A. et al. Life Sciences 2003, 73, 487-498. (b) McNamara C, R. et al. Proc. Natl. Acad. Sci. U.S.A., 2007, 104, 13525-13530. The screening of the compounds may be carried out by other methods and procedures known to persons skilled in the art.
Screening for TRPV3 Antagonist Using the ^45Calcium Uptake Assay
The inhibition of TRPV3 receptor activation was followed as inhibition of 2-aminoethxydiphenylborate (2-APB) induced cellular uptake of radioactive calcium. Test compounds were dissolved in dimethyl sulfoxide (DMSO) to prepare 20 mM stock solution and then diluted using plain medium with DMEM/F-12 containing 1.8 mM CaCl2 to get desired concentration. Final concentration of DMSO in the reaction was 0.5% (v/v). Human TRPV3 expressing CHO cells were grown in DMEM/F-12 medium with 10% FBS, 1% penicillin-streptomycin solution, 400 μg/mL of G-418. Cells were seeded 24 h prior to the assay in 96 well plates so as to get ˜50,000 cells per well on the day of experiment. Cells were treated with test compounds for 10 minutes followed by addition of 2-APB at a final concentration of 500 μM and 5 μCi/mL ^45Ca^+2 for 4 minutes. Cells were washed and lysed using buffer containing 1% Triton X-100, 0.1% deoxycholate and 0.1% SDS. Radioactivity in the lysate was measured in Packardt Top count after addition of liquid scintillant. Concentration response curves were plotted as a % of maximal response obtained in the absence of test antagonist. IC50 value was calculated from concentration response curve by nonlinear regression analysis using GraphPad PRISM software.
Percentage inhibition at concentrations of 1.0 μM and 10.0 μM are given in the table along with IC50 (nM) details for selected examples.

Consider `COc1cccc(/C=C/c2nc3sccn3c2C(=O)Nc2nc(-c3ccc(C#N)cc3)cs2)c1OCC(C)(C)C` [Example 15, N-[4-(4-Cyanophenyl)-1,3-thiazol-2-yl]-6-{(E)-2-[2-(2,2-dimethylpropoxy)-3-methoxyphenyl]vinyl}imidazo[2,1-b][1,3]thiazole-5-carboxamide], for which the inhibition at 1 µM (compound at 1.0 μM) was 20.7%. The inhibition at 10 µM (compound at 10.0 μM) was 26.6%.
The corresponding values for `CC(C)(C)COc1c(/C=C/c2nc3sccn3c2C(=O)Nc2ccc(C#N)cn2)cccc1OC(F)F` [Example 26, N-(5-Cyanopyridin-2-yl)-6-{(E)-2-[3-(difluoromethoxy)-2-(2,2-dimethylpropoxy)phenyl]vinyl}imidazo[2,1-b][1,3]thiazole-5-carboxamide] are 70.1% and 77.5%.
Consider `COc1cccc(/C=C/c2nc3sccn3c2C(=O)Nc2nc(C(F)(F)F)cs2)c1OCC1CC1` [Example 2, 6-[(E)-2-(2-Cyclopropylmethoxy-3-methoxyphenyl)vinyl]-N-[4-(trifluoromethyl)-1,3-thiazol-2-yl]imidazo[2,1-b][1,3]thiazole-5-carboxamide], for which the IC50 fell in the range of 250 to 1000 nM. In addition, the inhibition at 1 µM (compound at 1.0 μM) was determined as 73.2%. Further, the inhibition at 10 µM (compound at 10.0 μM) came out at 97.6%.
The corresponding values for `COc1cccc(/C=C/c2nc3sccn3c2C(=O)Nc2nc(C)cs2)c1OCC(C)(C)C` [Example 10, 6-{(E)-2-[2-(2,2-Dimethylpropoxy)-3-methoxyphenyl]vinyl}-N-(4-methyl-1,3-thiazol-2-yl)imidazo[2,1-b][1,3]thiazole-5-carboxamide] are 250 to 1000 nM, 69.3% and 80.6%.
`CC(C)(C)COc1c(/C=C/c2nc3sccn3c2C(=O)NCCC#N)cccc1OC(F)F` [Example 30, N-(2-Cyanoethyl)-6-{(E)-2-[3-(difluoromethoxy)-2-(2,2-dimethylpropoxy)phenyl]vinyl}imidazo[2,1-b][1,3]thiazole-5-carboxamide]: the inhibition at 1 µM (compound at 1.0 μM) was 21.1%. In addition, the inhibition at 10 µM (compound at 10.0 μM) amounted to 94%.
In the case of `CCCCCOc1c(/C=C/c2nc3sccn3c2C(=O)Nc2nc(C3CC3)cs2)cccc1OC(F)F` [Example 34], the IC50 lay in the range of 100 to 250 nM. Moreover, the inhibition at 1 µM (compound at 1.0 μM) stood at 78.1%. Besides, for the setting “compound at 10.0 μM”, the inhibition at 10 µM was found to be 95%.
Take `COc1cccc(/C=C/c2nc3sccn3c2C(=O)N2CCN(c3ccc(C#N)cn3)CC2)c1OCC1CC1` [Example 5]: the inhibition at 1 µM (compound at 1.0 μM) stood at 5.32%. Moreover, the inhibition at 10 µM (compound at 10.0 μM) came out at 38.2%.
In the case of `CCN(C(=O)c1c(/C=C/c2cccc(OC)c2OCC(C)(C)C)nc2sccn12)c1nc(C(F)(F)F)cs1` [Example 11, N-Ethyl-6-{(E)-2-[2-(2,2-dimethylpropoxy)-3-methoxyphenyl]vinyl}-N-[4-(trifluoro-methyl)-1,3-thiazol-2-yl]imidazo[2,1-b][1,3]thiazole-5-carboxamide], the IC50 is < 100 nM. In addition, the inhibition at 1 µM (compound at 1.0 μM) is 75.1%. For the same compound, the inhibition at 10 µM (compound at 10.0 μM) amounted to 84.8%.
`CC(C)(C)COc1c(/C=C/c2nc3ccccn3c2C(=O)Nc2nc(C3CCC3)cs2)cccc1OC(F)F` [Example 40, N-(4-Cyclobutyl-1,3-thiazol-2-yl)-2-{(E)-2-[3-(difluoromethoxy)-2-(2,2-dimethyl-propoxy)phenyl]vinyl}imidazo[1,2-c]pyridine-3-carboxamide]: for the setting “compound at 1.0 μM”, the “Percentage inhibition at 1.0 μM” value came to 56.41%. Further, where the note is “compound at 10.0 μM”, the “Percentage inhibition at 10.0 μM” value was 72.35%.
As for `COc1cccc(/C=C/c2nc3sccn3c2C(=O)Nc2nnc(C(F)(F)F)s2)c1OCC(C)(C)C` [Example 12, 6-{(E)-2-[2-(2,2-Dimethylpropoxy)-3-methoxyphenyl]vinyl}-N-[5-(trifluoromethyl)-1,3,4-thiadiazol-2-yl]imidazo[2,1-b][1,3]thiazole-5-carboxamide], the inhibition at 1 µM (compound at 1.0 μM) came out at 13.3%. The inhibition at 10 µM (compound at 10.0 μM) amounted to 82.8%.
As for `COc1cccc(/C=C/c2nc3sccn3c2C(=O)N2CCN(c3ccc(C(F)(F)F)cn3)CC2)c1OCC1CC1` [Example 4, 6-[(E)-2-(2-Cyclopropylmethoxy-3-methoxyphenyl)vinyl]imidazo[2,1-b][1,3]thiazol-5-yl-4-(5-trifluoromethyl-2-pyridyl)piperazinomethanone], the inhibition at 1 µM (compound at 1.0 μM) was determined as 36.2%. Also, the inhibition at 10 µM (compound at 10.0 μM) came to 91.7%.
For the compound `COc1cccc(/C=C/c2nc3ccccn3c2C(=O)Nc2nc(C(F)(F)F)cs2)c1OCC(C)(C)C` [Example 37], the IC50 was < 100 nM. Also, the inhibition at 1 µM (compound at 1.0 μM) was determined as 94.9%. In addition, the inhibition at 10 µM (compound at 10.0 μM) was determined as 97.9%.
Consider `CC(C)(C)COc1c(/C=C/c2nc3sccn3c2C(=O)Nc2nc3c(s2)CCC3)cccc1OC(F)F` [Example 28, 6-{(E)-2-[2-(2,2-Dimethylpropoxy)-3-(difluoromethoxy)phenyl]vinyl}-N-(5,6-dihydro-4H-cyclopenta[d][1,3]thiazol-2-yl)imidazo[2,1-b][1,3]thiazole-5-carboxamide], for which the inhibition at 1 µM (compound at 1.0 μM) was 9.45%. Where the note is “compound at 10.0 μM”, the inhibition at 10 µM was determined as 15.6%.
